This note sets out measurements from patent US8629256B2, “Genetically encoded calcium indicator polypeptides and nucleic acids encoding same” (Howard Hughes Medical Institute, priority 2009, dated 2014).

The structures appear in SMILES notation.

One assay deals with HEK293 cells. Put plainly: Baseline fluorescence (brightness) of GCaMP-transfected HEK293 cells. Format: cell-based, human. To be noted: 10 μM proteasome inhibitor. On the procedure:
FIGS. 1A-1E show the in vitro characterization of GCaMP3. […] FIG. 1B is a schematic representation of GCaMP2 and GCaMP3. Mutated residues are shown below GCaMP3. FIG. 1C is a graph of the fluorescence spectra of GCaMP3 and GCaMP2 (1 μM protein) with 1 mM Ca^2+ or 10 mM EGTA in MOPS buffer (30 mM MOPS, 100 mM KCl, pH 7.5) (average of three independent measurements). The fluorescence intensity of each indicator was normalized to the peak of the calcium-saturated spectrum. […] FIG. 1D is a graph of the Ca^2+ titration curve (1 μM protein) in MOPS buffer. […] FIG. 1E is images (left) and a graph (right) showing the improved baseline fluorescence of GCaMP3 compared to GCaMP2. Both indicators were either transfected to HEK293 cells or virally delivered to layer 2/3 cortical neurons. Images were taken either 48 hours post-transfection or 12 days post-viral injection, then analyzed with VOLOCITY® 5.0 (Improvision Imaging Processing & Vision Co., Coventry, England). 50 μm scale bar. […]
GCaMPs in pCMV were transfected into HEK293 cells using Lipofectamine 2000 (Invitrogen, Carlsbad, Calif.), and imaging experiments were performed 48 hours post transfection. 293 cells transfected with GCaMPs in 96-well plate were imaged on an FDSS plate reader (Hamamatsu, Japan). Acetylcholine (Ach) was automatically added 10 seconds after read initiation. Brightness was quantified using VOLOCITY® 5.0 (Improvision).

Another assay deals with T1, histamine 1 receptor H1R (Homo sapiens, UniProt P35367).
T1 construct: The H1R was cloned into the pCAG mammalian expression vector; expressed in transfected cells; host or cells: HEK293 and HeLa cells, transfected with pCAG-H1R (with pCAG-GCaMP3 or loaded with a dye kit)
Put plainly: H1R calcium flux fluorescence assay with GCaMP3 or small molecule dye kits. As to conditions: HEK293 and HeLa cells. Format: cell-based. On the procedure: The nucleic acid sequence was cloned into a mammalian expression vector driving from the CAG promoter (pCAG).
The H1R was cloned into the pCAG mammalian expression vector. […] In parallel, HEK293 cells were transfected with pCAG-H1R and incubated with either of the two best-performing small molecule dye calcium kits (the BD Calcium Kit from BD Biosciences and the FLIPR Calcium-5 Kit from Molecular Devices). […] Biophys.
(Calcium flux is commonly read through the fluorescence of an indicator in the cells.)

T1 sequence (P35367 with tags, fused parts or gaps): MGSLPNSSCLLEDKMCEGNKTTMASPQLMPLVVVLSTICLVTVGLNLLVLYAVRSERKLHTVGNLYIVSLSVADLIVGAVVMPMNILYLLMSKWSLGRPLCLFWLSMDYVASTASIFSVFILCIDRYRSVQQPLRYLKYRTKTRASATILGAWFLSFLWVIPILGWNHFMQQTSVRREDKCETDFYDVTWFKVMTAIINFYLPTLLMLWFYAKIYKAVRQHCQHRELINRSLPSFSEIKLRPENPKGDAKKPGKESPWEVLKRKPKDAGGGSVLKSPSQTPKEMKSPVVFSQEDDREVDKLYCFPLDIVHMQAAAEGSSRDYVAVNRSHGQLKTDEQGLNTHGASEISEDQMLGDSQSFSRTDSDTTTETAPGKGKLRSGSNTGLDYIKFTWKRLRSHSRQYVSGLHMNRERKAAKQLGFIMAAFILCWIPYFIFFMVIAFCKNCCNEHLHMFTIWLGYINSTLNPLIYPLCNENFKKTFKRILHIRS

As to `CC(=O)N[C@@H](CSC(=O)[C@]1([C@@H](O)C(C)C)NC(=O)[C@H](C)[C@@H]1O)C(=O)O` [lactacystin], the “effect on baseline fluorescence of HEK293 cells expressing GCaMP2” value in the assay with HEK293 cells is listed as “increased the baseline fluorescence”.
On to `O=C(O)COCCN1CCN(C(c2ccccc2)c2ccc(Cl)cc2)CC1` (stereo not drawn) [cetirizine], for which the response-to-baseline ratio at histamine 1 receptor H1R (10 nM histamine plus antagonist, all detection methods) is on record as approximately 1.0. Moreover, the “inhibition of the H1R receptor” value on histamine 1 receptor H1R (10 nM histamine, GCaMP3 and both dye kits) is given as “near complete inhibition”.
